Patent publication US20260234099A1, “Endocannabinoid ligands and related analogs” (Northeastern University, priority 2023, published 2026)
Where two headings read alike, the source gives them in different places.

Key:
[1] = target: CB2 receptor (hCB2) (Homo sapiens, UniProt P34972); test: cAMP assay (inhibition of FSK stimulated cAMP), CB2; format: cell-based; settings: class symbols
Description: FIG. 2A is a graph providing data of the % inhibition of FSK stimulated cAMP for compound 6.1.1 for hCB2.
Further functional characterization of some of the disclosed compounds tested initially for “binding affinity” or for GTPγ-S binding was performed by using the cyclic adenosine monophosphate (cAMP) assay. Key compounds initially characterized functionally using the GTPγ-S assay were also doubly tested using the cAMP assay to unambiguously confirm their functional profiles. The functional potency of the compounds tested using the cyclase assay is also represented by the EC50 (cAMP) value and similarly the lower the EC50 (cAMP) value the higher the potency of the compound for the receptor. A detailed description of the methods used to test compounds using the cAMP assay is given in Yingpeng, et al. J. Med. Chem. (2018) 61, 8639-8657 the content of which is hereby incorporated by reference. The EC50 values (potency of a test compound) of the functional assays may or may not be accompanied by the E(max) value in tables 1-5 (efficacy of the test compound). E(max)/efficacy is the maximum GTP stimulation or cAMP inhibition levels and is presented as the percentage of maximum response evoked by a standard CB1/CB2 full agonist (e.g., CP-55,940) for reference see the paper cited above. If a test compound has an efficacy close to 100% of the standard full agonist, then the test compound is also classified as full agonist.

[2] = target: CB1 receptor (rCB1) (Rattus norvegicus, UniProt P20272); test: cAMP assay (inhibition of FSK stimulated cAMP), CB1; format: cell-based; settings: for functional profile at CB1 (cAMP): full or partial agonist; for Emax: percentage of maximum response of standard full agonist (e.g., CP-55,940)
Description: Further functional characterization of some of the disclosed compounds tested initially for “binding affinity” or for GTPγ-S binding was performed by using the cyclic adenosine monophosphate (cAMP) assay. […] A detailed description of the methods used to test compounds using the cAMP assay is given in Yingpeng, et al. J. Med. Chem. (2018) 61, 8639-8657 the content of which is hereby incorporated by reference. The EC50 values (potency of a test compound) of the functional assays may or may not be accompanied by the E(max) value in tables 1-5 (efficacy of the test compound). E(max)/efficacy is the maximum GTP stimulation or cAMP inhibition levels and is presented as the percentage of maximum response evoked by a standard CB1/CB2 full agonist (e.g., CP-55,940) for reference see the paper cited above.

[3] = target: CB2 receptor (Homo sapiens, UniProt P34972); test: CB2 receptor binding affinity (Ki); design: CB2 receptor Ki; CB2 receptor Ki (PMSF); other: with PMSF; settings: read-out: CB2 receptor Ki
Description: (§1) Some disclosed compounds were tested for CB1 and CB2 receptor binding affinity (Tables 1, 2, 3, 4, 5). As used herein “binding affinity” is represented by the Ki value. The Ki value is the affinity constant and describes the affinity of the compound for the receptor. […] A detailed description of the methods used to test “binding affinity” of compounds is given in Makriyannis, et al., US 2007/0135388 the content of which is hereby incorporated by reference.

[4] = target: CB1 receptor (Rattus norvegicus, UniProt P20272); test: CB1 receptor binding affinity (Ki); settings: for CB1 over CB2 preference: CB1 vs CB2, Tables 1 and 5; for binding affinity for CB1 receptor compared to endogenous AEA: vs AEA, Table 5
Description: as §1

[5] = with PMSF, read-out: CB1 Receptor Ki with PMSF
[6] = without PMSF, read-out: CB1 receptor affinity Ki

Chain of CB2 receptor (hCB2) (P34972 whole entry): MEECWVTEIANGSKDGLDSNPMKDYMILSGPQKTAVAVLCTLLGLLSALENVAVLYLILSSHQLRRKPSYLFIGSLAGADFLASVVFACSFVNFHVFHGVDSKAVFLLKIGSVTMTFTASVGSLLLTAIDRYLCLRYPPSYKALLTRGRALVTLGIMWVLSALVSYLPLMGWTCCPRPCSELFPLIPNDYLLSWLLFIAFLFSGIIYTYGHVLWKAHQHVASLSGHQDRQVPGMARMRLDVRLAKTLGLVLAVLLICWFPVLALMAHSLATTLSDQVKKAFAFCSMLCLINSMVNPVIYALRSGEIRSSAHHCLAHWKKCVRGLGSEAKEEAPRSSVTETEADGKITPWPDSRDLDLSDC
Chain of CB1 receptor (P20272 whole entry): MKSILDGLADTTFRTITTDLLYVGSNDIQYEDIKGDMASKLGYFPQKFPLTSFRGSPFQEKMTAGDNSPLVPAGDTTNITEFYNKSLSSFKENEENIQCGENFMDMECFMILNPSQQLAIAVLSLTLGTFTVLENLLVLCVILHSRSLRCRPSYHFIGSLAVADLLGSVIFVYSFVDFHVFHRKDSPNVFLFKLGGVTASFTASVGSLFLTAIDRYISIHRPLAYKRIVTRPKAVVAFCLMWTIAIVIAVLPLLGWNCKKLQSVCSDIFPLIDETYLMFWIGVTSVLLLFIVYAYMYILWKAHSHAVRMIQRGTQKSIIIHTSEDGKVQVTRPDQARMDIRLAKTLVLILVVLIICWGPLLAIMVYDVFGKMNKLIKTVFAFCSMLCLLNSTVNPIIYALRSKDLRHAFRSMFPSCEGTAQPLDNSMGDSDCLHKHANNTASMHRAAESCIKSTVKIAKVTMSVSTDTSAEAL
Chain of CB1 receptor (rCB1) (P20272 whole entry): as above

C[C@H](/C=C\C/C=C\C/C=C\C1CC1C(=O)OC(CO)CO)/C=C\CCCCC(F)(F)F (single isomer, unassigned) [Compound 5.11.4]
EC50 [1]: 10 to 200 nM
EC50 ([2]; class symbols): 10 to 200 nM

C[C@H](/C=C\C/C=C\C/C=C\C1CC1C(=O)OC(CO)CO)/C=C\CCCCC(F)(F)F (single isomer, unassigned) [Compound 5.11.8]
EC50 [1]: 10 to 200 nM
EC50 ([2]; class symbols): 0.01 to 10 nM

C[C@H](/C=C\C/C=C\C/C=C\CCCC(=O)N[C@H](C)CO)/C=C\CCCCCOC1CCCCO1 (stereo partly shown) [Compound 4.1.3]
Ki [3]: > 1000 nM
Ki [4, 5]: > 1000 nM
Ki [4, 6]: > 1000 nM

C[C@H](/C=C\C/C=C\C/C=C\CCCC(=O)N[C@H](C)CO)/C=C\CCCCCBr [Compound 4.1.4, (S,5Z,8Z,11Z,14Z)-20-Bromo-N—((R)-1-hydroxypropan-2-yl)-13-methylicosa-5,8,11,14-tetraenamide]
Ki [3]: 0.01 to 10 nM
Ki [4, 5]: 0.01 to 10 nM
Ki [4, 6]: 0.01 to 10 nM

C[C@H](/C=C\C/C=C\C/C=C\CCCC(=O)N[C@H](C)CO)/C=C\CCCCCO[N+](=O)[O-] [Compound 4.1.5b, (S,6Z,9Z,12Z,15Z)-20-(((R)-1-Hydroxypropan-2-yl)amino)-8-methyl-20-oxoicosa-6,9,12,15-tetraen-1-yl Nitrate]
Ki [3]: 10 to 200 nM
CB1 over CB2 preference [4]: bind to and stimulate preferentially the CB1 receptors
Ki [4, 5]: 0.01 to 10 nM
Ki [4, 6]: 0.01 to 10 nM

CCCCC/C=C\C/C=C\C/C=C\C/C=C\C1CC1C(=O)NCCO (stereo not shown) [Compound 4.2.2a, 2-((1Z,4Z,7Z,10Z)-Hexadeca-1,4,7,10-tetraen-1-yl)-N-(2-hydroxyethyl)cyclopropane-1-carboxamide]
Ki [3]: > 1000 nM
Ki [4, 6]: > 1000 nM

CCCCC/C=C\C/C=C\C/C=C\C/C=C\C1CC(C(=O)NCCO)C1 (stereo not shown) [Compound 4.2.2c]
Ki [3]: 200 to 1000 nM
Ki [4, 5]: 200 to 1000 nM

CCCCC/C=C\C/C=C\C/C=C\C/C=C\C1(CC(=O)NCCO)CCC1 [Compound 4.2.2d]
Ki [4, 5]: 200 to 1000 nM

CCCCC/C=C\C/C=C\C/C=C\C/C=C\C1CC[C@@H](C(=O)NCCO)C1 (stereo partly shown) [Compound 4.2.2e]
Ki [3]: 200 to 1000 nM
Ki [4, 5]: 200 to 1000 nM

CCCCC/C=C\C/C=C\C/C=C\C/C=C\C1CCC(C(=O)NCCO)CC1 (stereo not shown) [Compound 4.2.2f]
Ki [3]: 200 to 1000 nM
Ki [4, 5]: 200 to 1000 nM

CCCCC/C=C\C/C=C\C/C=C\Cc1ccccc1CCCC(=O)NCCO [Compound 4.3.4, N-(2-Hydroxyethyl)-4-(2-((2Z,5Z,8Z)-tetradeca-2,5,8-trien-1-yl)phenyl)butanamide]
Ki [3]: 10 to 200 nM
binding affinity for CB1 receptor compared to endogenous AEA [4]: substantially higher binding affinities
Ki [4, 5]: 10 to 200 nM
Ki [4, 6]: 10 to 200 nM

CCCCC/C=C\C/C=C\C/C=C\Cc1ccccc1CCCC(=O)N[C@H](C)CO [Compound 4.3.5, N—((R)-1-Hydroxypropan-2-yl)-4-(2-((2Z,5Z,8Z)-tetradeca-2,5,8-trien-1-yl)phenyl)butanamide]
Ki [3]: 10 to 200 nM
CB1 over CB2 preference [4]: bind to and stimulate preferentially the CB1 receptors
binding affinity for CB1 receptor compared to endogenous AEA [4]: substantially higher binding affinities
Ki [4, 5]: 10 to 200 nM
Ki [4, 6]: 0.01 to 10 nM

CCCCC/C=C\[C@H](C)/C=C\C/C=C\Cc1ccccc1CCCC(=O)N[C@H](C)CO [Compound 4.5.3, N—((R)-1-hydroxypropan-2-yl)-4-(2-((S,2Z,5Z,8Z)-7-methyltetradeca-2,5,8-trien-1-yl)phenyl)butanamide]
binding affinity for CB1 receptor compared to endogenous AEA [4]: substantially higher binding affinities
Ki [4, 5]: 0.01 to 10 nM
Ki [4, 6]: 0.01 to 10 nM

C[C@H](/C=C\C/C=C\C/C=C\CCCC(=O)NC(CO)CO)/C=C\CCCCCO[N+](=O)[O-] [Compound 5.1.6b]
EC50 [1]: 10 to 200 nM
EC50 ([2]; class symbols): 0.01 to 10 nM

C[C@H](/C=C\C/C=C\C/C=C\CCCC(=O)NC(CO)CO)/C=C\CCCCCOC1CCCCO1 (stereo partly shown) [Compound 5.1.6c]
EC50 [1]: > 1000 nM
EC50 ([2]; class symbols): > 1000 nM

CCCCC/C=C\C/C=C\C/C=C\C/C=C\C1CC1C(=O)OC(CO)CO (stereo not shown) [Compound 5.2.2a, 1,3-Dihydroxypropan-2-yl 2-((1Z,4Z,7Z,10Z)-hexadeca-1,4,7,10-tetraen-1-yl)cyclopropane-1-carboxylate]
EC50 ([2]; class symbols): 10 to 200 nM

CCCCC/C=C\C/C=C\C/C=C\C/C=C\C1CC1C(=O)OC(CO)CO (stereo not shown) [Compound 5.2.2b]
EC50 [1]: 10 to 200 nM

CCCCC/C=C\C/C=C\C/C=C\C/C=C\C1CC(C(=O)OC(CO)CO)C1 (stereo not shown) [Compound 5.2.2c]
EC50 [1]: > 1000 nM
EC50 ([2]; class symbols): > 1000 nM

CCCCC/C=C\C/C=C\C/C=C\C/C=C\C1(CC(=O)OC(CO)CO)CCC1 [Compound 5.2.2d]
EC50 [1]: > 1000 nM
EC50 ([2]; class symbols): 200 to 1000 nM

CCCCC/C=C\C/C=C\C/C=C\C/C=C\C1CCC(C(=O)OC(CO)CO)CC1 (stereo not shown) [Compound 5.2.2f]
EC50 [1]: > 1000 nM
EC50 ([2]; class symbols): > 1000 nM

CCCCC/C=C\[C@H](C)/C=C\C/C=C\C/C=C\CCCC(=O)OC(CO)CO [Compound 5.4.3c, 1,3-Dihydroxypropan-2-yl (S,5Z,8Z,11Z,14Z)-13-methylicosa-5,8,11,14-tetraenoate]
EC50 [1]: 0.01 to 10 nM
functional profile at CB1 (cAMP) [2]: full agonist
EC50 ([2]; numeric): 10.3 nM
Emax [2]: 99%

CCCCC/C=C\[C@@H](C)/C=C\C/C=C\C/C=C\CCCC(=O)OC(CO)CO [Compound 5.4.3d, 1,3-Dihydroxypropan-2-yl (R,5Z,8Z,11Z,14Z)-13-methylicosa-5,8,11,14-tetraenoate]
EC50 [1]: 0.01 to 10 nM
functional profile at CB1 (cAMP) [2]: full agonist
EC50 ([2]; numeric): 4.1 nM
Emax [2]: 95%

C[C@H](/C=C\C/C=C\C/C=C\C1CC1C(=O)OC(CO)CO)/C=C\CCCCCO[N+](=O)[O-] (stereo partly drawn) [Compound 5.7.3b, 1,3-dihydroxypropan-2-yl-2-((S,1Z,4Z,7Z,10Z)-9-methyl-16-(nitrooxy)hexadeca-1,4,7,10-tetraen-1-yl)cyclopropane-1-carboxylate]
EC50 ([2]; class symbols): 0.01 to 10 nM

N#CCCCCC/C=C\C/C=C\C/C=C\C/C=C\C1CC1C(=O)OC(CO)CO (stereo not shown) [Compound 5.8.3a, 1,3-Dihydroxypropan-2-yl-2-((1Z,4Z,7Z,10Z)-16-cyanohexadeca-1,4,7,10-tetraen-1-yl)cyclopropane-1-carboxylate]
EC50 ([2]; class symbols): 10 to 200 nM

O=C(OC(CO)CO)C1CC1/C=C\C/C=C\C/C=C\C/C=C\CCCCCO[N+](=O)[O-] (stereo not shown) [Compound 5.8.3b, 1,3-Dihydroxypropan-2-yl-2-((1Z,4Z,7Z,10Z)-16-(nitrooxy)hexadeca-1,4,7,10-tetraen-1-yl)cyclopropane-1-carboxylate]
EC50 ([2]; class symbols): 10 to 200 nM

CCCCC/C=C\[C@H](C)/C=C\C/C=C\Cc1ccccc1CCCC(=O)OC(CO)CO [Compound 5.9.3]
EC50 [1]: > 1000 nM
EC50 ([2]; class symbols): > 1000 nM

C[C@H](/C=C\C/C=C\C/C=C\[C@@H]1C[C@H]1C(=O)OC(CO)CO)/C=C\CCCCC(F)(F)F [Compound 5.12.1]
EC50 [1]: 10 to 200 nM
EC50 ([2]; class symbols): 10 to 200 nM

C[C@H](/C=C\C/C=C\C/C=C\[C@H]1C[C@@H]1C(=O)OC(CO)CO)/C=C\CCCCC(F)(F)F [Compound 5.12.2]
EC50 [1]: 10 to 200 nM
EC50 ([2]; class symbols): > 1000 nM

C[C@H](/C=C\C/C=C\C/C=C\[C@H]1C[C@H]1C(=O)OC(CO)CO)/C=C\CCCCC(F)(F)F [Compound 5.12.3, 1,3-dihydroxypropan-2-yl (1R,2R)-2-((S,1Z,4Z,7Z,10Z)-16,16,16-trifluoro-9-methylhexadeca-1,4,7,10-tetraen-1-yl)cyclopropane-1-carboxylate]
EC50 [1]: 10 to 200 nM
EC50 ([2]; class symbols): 0.01 to 10 nM

C[C@H](/C=C\C/C=C\C/C=C\[C@@H]1C[C@@H]1C(=O)OC(CO)CO)/C=C\CCCCC(F)(F)F [Compound 5.12.4, 1,3-dihydroxypropan-2-yl (1S,2S)-2-((S,1Z,4Z,7Z,10Z)-16,16,16-trifluoro-9-methylhexadeca-1,4,7,10-tetraen-1-yl)cyclopropane-1-carboxylate]
EC50 [1]: 10 to 200 nM
EC50 ([2]; class symbols): 10 to 200 nM

CCCCC/C=C\[C@H](C)/C=C\C/C=C\C/C=C\CCCOC(=O)C(C)(CO)CO [Compound 6.2.2, (S,4Z,7Z,10Z,13Z)-12-Methylnonadeca-4,7,10,13-tetraen-1-yl-3-hydroxy-2(hydroxymethyl)-2-methylpropanoate]
EC50 [1]: 10 to 200 nM
EC50 ([2]; class symbols): 10 to 200 nM
